The values below come from US9145399B2, “Substituted bicyclic triazole derivatives as gamma secretase modulators” (Janssen Pharmaceuticals, Inc., priority 2010, dated 2015).

Usually IC50 stands for the concentration that inhibits the measured activity by half. Low values mean higher potency, high ones lower potency. A word on the melting point: it is the temperature of the solid-liquid transition.

One series relates to Aβ42. Nature of the series: Screening for γ-secretase-modulating activity in SKNBE2 cells carrying APP 695 wild type: Aβ42 in cell supernatant (Alphalisa). Conditions: overnight incubation. The format is cell-based. As for the experimental part: (§1) Pharmacology A) Screening of the Compounds of the Invention for γ-Secretase-Modulating Activity
(§2) Screening was carried out using SKNBE2 cells carrying the APP 695—wild type, grown in Dulbecco's Modified Eagle's Medium/Nutrient mixture F-12 (DMEM/NUT-mix F-12) (HAM) provided by Invitrogen (cat no. 10371-029) containing 5% Serum/Fe supplemented with 1% non-essential amino acids, 1-glutamine 2 mM, Hepes 15 mM, penicillin 50 U/ml (units/ml) en streptomycin 50 μg/ml. Cells were grown to near confluency.
(§3) The screening was performed using a modification of the assay as described in Citron et al (1997) Nature Medicine 3: 67. Briefly, cells were plated in a 384-well plate at 10^4 cells/well in Ultraculture (Lonza, BE12-725F) supplemented with 1% glutamine (Invitrogen, 25030-024), 1% non-essential amino acid (NEAA), penicillin 50 U/ml en streptomycin 50 μg/ml in the presence of test compound at different test concentrations. The cell/compound mixture was incubated overnight at 37° C., 5% CO2. The next day the media were assayed by two sandwich immuno-assays, for Aβ42 and Aβtotal.
(§4) Aβtotal and Aβ42 concentrations were quantified in the cell supernatant using the Aphalisa technology (Perkin Elmer). Alphalisa is a sandwich assay using biotinylated antibody attached to streptavidin coated donorbeads and antibody conjugated to acceptor beads. In the presence of antigen, the beads come into close proximity. The excitation of the donor beads provokes the release of singlet oxygen molecules that trigger a cascade of energy transfer in the acceptor beads, resulting in light emission. To quantify the amount of Aβ42 in the cell supernatant, monoclonal antibody specific to the C-terminus of Aβ42 (JRF/cAβ42/26) was coupled to the receptor beads and biotinylated antibody specific to the N-terminus of Aβ (JRF/AβN/25) was used to react with the donor beads. T quantify the amount of Aβtotal in the cell supernatant, monoclonal antibody specific to the N-terminus of Aβ (JRF/AβN/25) was coupled to the receptor beads and biotinylated antibody specific to the mid region of Aβ (biotinylated 4G8) was used to react with the donor beads.
(§5) To obtain the values reported in Table 3, the data are calculated as percentage of the maximum amount of amyloid Beta 42 measured in the absence of the test compound. The sigmoidal dose response curves were analyzed using non-linear regression analysis with percentage of the control plotted against the log concentration of the compound. A 4-parameter equation was used to determine the IC50.

In a further series the test system is Aβtotal. Nature of the series: Screening for γ-secretase-modulating activity in SKNBE2 cells carrying APP 695 wild type: Aβtotal in cell supernatant (Alphalisa). The series is classed as cell-based. Conditions: overnight incubation. As for the experimental part:
as §1, §2, §3, §4, §5

Setting [1] is: Homo sapiens, SKNBE2, SKNBE2 cells carrying APP 695 wild type.

Structures can show the parent of a compound that is named as a salt.

`COc1cc(Nc2nc3n(n2)CCC(C)C3c2ccc(F)cc2)ccc1-c1ccnc(C)c1` (racemic) [Compound 101, 8-(4-fluorophenyl)-5,6,7,8-tetrahydro-N-[3-methoxy-4-(2-methyl-4-pyridinyl)phenyl]-7-methyl-[1,2,4]triazolo[1,5-a]pyridin-2-amine] had a melting point of 122.1 °C. Also, the IC50 in the series on Aβ42 (setting [1]) was determined as 44 nM. Moreover, in the series on Aβtotal (Homo sapiens), the IC50 was more than 10000 nM.

`COc1cc(Nc2nc3n(n2)CCCC3c2ccc(F)cc2)ccc1-c1ccnc(C)c1` (stereo not shown) [Compound 1, 8-(4-fluorophenyl)-5,6,7,8-tetrahydro-N-[3-methoxy-4-(2-methyl-4-pyridinyl)phenyl]-[1,2,4]triazolo[1,5-a]pyridin-2-amine] registered a melting point of 207.1 °C. This compound came in with an IC50 in the series with Aβ42 (setting [1]) of 16 nM. For the same compound, it took 7760 nM to reach half-maximal inhibition with Aβtotal (Homo sapiens) (IC50).

Consider `COc1cc(Nc2nc3c(-c4ccccc4Cl)cccn3n2)ccc1-c1ccnc(C)c1` [Compound 2, 8-(2-chlorophenyl)-N-[3-methoxy-4-(2-methyl-4-pyridinyl)phenyl]-[1,2,4]triazolo[1,5-a]pyridin-2-amine], for which the melting point was determined as 186.7 °C. The compound also returned an IC50 with Aβ42 (setting [1]) of 7 nM. Moreover, in the series with Aβtotal (Homo sapiens), the IC50 was more than 10000 nM.

For `COc1cc(Nc2nc3c(-c4ccc(F)cc4C(F)(F)F)cccn3n2)ccc1-n1cnc(C)c1` [Compound 6, 8-[4-fluoro-2-(trifluoromethyl)phenyl]-N-[3-methoxy-4-(4-methyl-1H-imidazol-1-yl)phenyl]-[1,2,4]triazolo[1,5-a]pyridin-2-amine], the melting point was found to be 238.4 °C. The compound also showed an IC50 with Aβ42 (setting [1]) of 7 nM. Besides, the IC50 in the series with Aβtotal (Homo sapiens) came to 7410 nM.

`COc1cc(Nc2nc3c(-c4ccccc4Cl)cccn3n2)ccc1-n1cnc(C)c1` [Compound 7, 8-(2-chlorophenyl)-N-[3-methoxy-4-(4-methyl-1H-imidazol-1-yl)phenyl]-[1,2,4]triazolo[1,5-a]pyridin-2-amine] gave a melting point of 235 °C. In the series on Aβ42 (setting [1]), this compound gave an IC50 of 7 nM. Also, the IC50 in the series on Aβtotal (Homo sapiens) is more than 10000 nM.

As to `COc1cc(Nc2nc3c(-c4ccccc4C(F)(F)F)nccn3n2)ccc1-n1cnc(C)c1` [Compound 8, N-[3-methoxy-4-(4-methyl-1H-imidazol-1-yl)phenyl]-8-[2-(trifluoromethyl)phenyl]-[1,2,4]triazolo[1,5-a]pyrazin-2-amine], the melting point turned out to be 206.9 °C. For the same compound, in the series on Aβ42 (setting [1]), half-maximal inhibition (IC50) was put at 32 nM. Further, the midpoint of inhibition with Aβtotal (Homo sapiens), the IC50, lay at 7590 nM.

`COc1cc(Nc2nc3n(n2)CCNC3c2ccccc2C(F)(F)F)ccc1-n1cnc(C)c1` (stereo not shown) [Compound 9, 5,6,7,8-tetrahydro-N-[3-methoxy-4-(4-methyl-1H-imidazol-1-yl)phenyl]-8-[2-(trifluoromethyl)phenyl]-[1,2,4]triazolo[1,5-a]pyrazin-2-amine] had a melting point of 248 °C. Also, 65 nM corresponded to half-maximal inhibition in the series with Aβ42 (setting [1]) (IC50). For the same compound, the IC50 in the series on Aβtotal (Homo sapiens) is more than 10000 nM.

As to `COc1nc(Nc2nc3c(-c4ccc(F)cc4C)nccn3n2)ccc1-n1cnc(C)c1` [Compound 11, 8-(4-fluoro-2-methylphenyl)-N-[6-methoxy-5-(4-methyl-1H-imidazol-1-yl)-2-pyridinyl]-[1,2,4]triazolo[1,5-a]pyrazin-2-amine], the melting point was 278.9 °C.

Compound `COc1nc(Nc2nc3c(-c4ccc(F)cc4C)nccn3n2)ccc1-c1ccnc(C)c1` [Compound 12, 8-(4-fluoro-2-methylphenyl)-N-(2-methoxy-2′-methyl[3,4′-bipyridin]-6-yl)-[1,2,4]triazolo[1,5-a]pyrazin-2-amine] came in with a melting point of 268.2 °C.

In turn, `COc1cc(Nc2nc3n(n2)CCCC3c2ccccc2C(F)(F)F)ccc1-n1cnc(C)n1` (stereo not shown) [Compound 15, 5,6,7,8-tetrahydro-N-[3-methoxy-4-(3-methyl-1H-1,2,4-triazol-1-yl)phenyl]-8-[2-(trifluoromethyl)phenyl]-[1,2,4]triazolo[1,5-a]pyridin-2-amine] yielded a melting point of 233.2 °C. This compound also returned an IC50 with Aβ42 (setting [1]) of 79 nM. Besides, the IC50 in the series on Aβtotal (Homo sapiens) was more than 10000 nM.

The compound `COc1cc(Nc2nc3c(-c4cccc(C(F)(F)F)c4)cccn3n2)ccc1-n1cnc(C)c1` [Compound 20, N-[3-methoxy-4-(4-methyl-1H-imidazol-1-yl)phenyl]-8-[3-(trifluoromethyl)phenyl]-[1,2,4]triazolo[1,5-a]pyridin-2-amine] came in with a melting point of 175 °C. The compound also registered an IC50 in the series on Aβ42 (setting [1]) of 5 nM. This compound also came in with an IC50 in the series with Aβtotal (Homo sapiens) of 5890 nM.

`COc1cc(Nc2nc3c(-c4cccc(C(F)(F)F)c4)nccn3n2)ccc1-n1cnc(C)c1` [Compound 22, N-[3-methoxy-4-(4-methyl-1H-imidazol-1-yl)phenyl]-8-[3-(trifluoromethyl)phenyl]-[1,2,4]triazolo[1,5-a]pyrazin-2-amine]: the melting point amounted to 199 °C. The same compound showed a half-maximal inhibitory concentration (IC50) in the series on Aβ42 (setting [1]) of 40 nM. For the same compound, in the series with Aβtotal (Homo sapiens), the IC50 worked out at 7590 nM.

As to `COc1cc(Nc2nc3c(-c4ccccc4C(F)(F)F)cccn3n2)ccc1-c1ocnc1C` [Compound 23, N-[3-methoxy-4-(4-methyl-5-oxazolyl)phenyl]-8-[2-(trifluoromethyl)phenyl]-[1,2,4]triazolo[1,5-a]pyridin-2-amine], the melting point came to 220.3 °C. Also, in the series on Aβ42 (setting [1]), 13 nM corresponded to half-maximal inhibition (IC50). Also, the half-maximal inhibitory concentration (IC50) in the series on Aβtotal (Homo sapiens) was more than 10000 nM.

With `Cc1cc(-c2ccc(Nc3nc4c(-c5ccccc5Cl)cccn4n3)cc2F)ccn1` [Compound 25, 8-(2-chlorophenyl)-N-[3-fluoro-4-(2-methyl-4-pyridinyl)phenyl]-[1,2,4]triazolo[1,5-a]pyridin-2-amine], the melting point was found to be 251 °C. The same compound had an IC50 in the series with Aβ42 (setting [1]) of 15 nM. This compound registered an IC50 in the series with Aβtotal (Homo sapiens) of more than 10000 nM.

`Cc1cc(-c2ccc(Nc3nc4c(-c5ccccc5Cl)cccn4n3)cc2)cc(C)n1` [Compound 26, 8-(2-chlorophenyl)-N-[4-(2,6-dimethyl-4-pyridinyl)phenyl]-[1,2,4]triazolo[1,5-a]pyridin-2-amine] had a melting point of 228.1 °C. The same compound gave an IC50 with Aβ42 (setting [1]) of 43 nM. This compound registered an IC50 in the series on Aβtotal (Homo sapiens) of more than 10000 nM.

`COc1cc(Nc2nc3n(n2)CCCC3c2cccc(F)c2)ccc1-n1cnc(C)c1` (stereo not shown) [Compound 30, 8-(3-fluorophenyl)-5,6,7,8-tetrahydro-N-[3-methoxy-4-(4-methyl-1H-imidazol-1-yl)phenyl]-[1,2,4]triazolo[1,5-a]pyridin-2-amine]: the melting point was found to be 200.6 °C. The compound also returned an IC50 in the series with Aβ42 (setting [1]) of 49 nM. This compound gave an IC50 with Aβtotal (Homo sapiens) of more than 10000 nM.

As to `COc1cc(Nc2nc3n(n2)CCCC3c2ccc(F)cc2C)ccc1-n1cnc(C)c1` (stereo not shown) [Compound 32, 8-(4-fluoro-2-methylphenyl)-5,6,7,8-tetrahydro-N-[3-methoxy-4-(4-methyl-1H-imidazol-1-yl)phenyl]-[1,2,4]triazolo[1,5-a]pyridin-2-amine], the melting point amounted to 249 °C. The same compound gave an IC50 in the series with Aβ42 (setting [1]) of 12 nM. The same compound had an IC50 in the series with Aβtotal (Homo sapiens) of 9330 nM.

Compound `COc1cc(Nc2nc3n(n2)CCCC3c2cccc(C(F)(F)F)c2)ccc1-n1cnc(C)c1` (stereo not shown) [Compound 34, 5,6,7,8-tetrahydro-N-[3-methoxy-4-(4-methyl-1H-imidazol-1-yl)phenyl]-8-[3-(trifluoromethyl)phenyl]-[1,2,4]triazolo[1,5-a]pyridin-2-amine] returned a melting point of 224.9 °C. The compound further registered an IC50 in the series with Aβ42 (setting [1]) of 10 nM. Besides, the IC50 in the series with Aβtotal (Homo sapiens) came to 7590 nM.

The compound `COc1cc(Nc2nc3n(n2)CCCC3c2ccccc2C(F)(F)F)ccc1-c1ocnc1C` (stereo not shown) [Compound 38, 5,6,7,8-tetrahydro-N-[3-methoxy-4-(4-methyl-5-oxazolyl)phenyl]-8-[2-(trifluoromethyl)phenyl]-[1,2,4]triazolo[1,5-a]pyridin-2-amine] registered a melting point of 258.5 °C. This compound also returned an IC50 in the series with Aβ42 (setting [1]) of 29 nM. Also, in the series with Aβtotal (Homo sapiens), the IC50 was more than 10000 nM.

For `COc1cc(Nc2nc3n(n2)CCCC3c2cccc(F)c2)ccc1-c1ccnc(C)c1` (stereo not shown) [Compound 44, 8-(3-fluorophenyl)-5,6,7,8-tetrahydro-N-[3-methoxy-4-(2-methyl-4-pyridinyl)phenyl]-[1,2,4]triazolo[1,5-a]pyridin-2-amine], the melting point is 170.1 °C. Further, in the series on Aβ42 (setting [1]), the IC50 turned out to be 39 nM. In the series on Aβtotal (Homo sapiens), this compound had an IC50 of more than 10000 nM.

Take `COc1nc(Nc2nc3c(-c4ccc(F)cc4C)nccn3n2)ccc1-c1ccnc(C)c1` [Compound 187, 8-(4-fluoro-2-methylphenyl)-N-(2-methoxy-2′-methyl[3,4′-bipyridin]-6-yl)-[1,2,4]triazolo[1,5-a]pyrazin-2-amine.HCl]: the figures for the IC50 with Aβ42 (SKNBE2 cells carrying APP 695 wild type) and with Aβtotal were 1620 nM and more than 10000 nM, respectively.
